Measurements: US6610677B2, “Pyrazole compounds useful as protein kinase inhibitors” (Vertex Pharmaceuticals Incorporated, priority 2000, dated 2003)

Target: T1, GSK-3β (AA 1-420) (Homo sapiens, UniProt P49841)
T1 construct: GSK-3β (AA 1-420)
Assay: Ki determination for the inhibition of GSK-3 (coupled enzyme system)
Type: biochemical
Conditions: 20 μM ATP, 300 μM peptide, 20 nM GSK-3β, 30° C
Protocol: Compounds were screened for their ability to inhibit GSK-3β (AA 1-420) activity using a standard coupled enzyme system (Fox et al. (1998) Protein Sci. 7, 2249). Reactions were carried out in a solution containing 100 mM HEPES (pH 7.5), 10 mM MgCl2, 25 mM NaCl, 300 μM NADH, 1 mM DTT and 1.5% DMSO. Final substrate concentrations in the assay were 20 μM ATP (Sigma Chemicals, St Louis, Mo.) and 300 μM peptide (HSSPHQS(PO3H2)EDEEE, American Peptide, Sunnyvale, Calif.). Reactions were carried out at 30° C. and 20 nM GSK-3β. Final concentrations of the components of the coupled enzyme system were 2.5 mM phosphoenolpyruvate, 300 μM NADH, 30 μg/ml pyruvate kinase and 10 μg/ml lactate dehydrogenase.
An assay stock buffer solution was prepared containing all of the reagents listed above with the exception of ATP and the test compound of interest. The assay stock buffer solution (175 μl) was incubated in a 96 well plate with 5 μl of the test compound of interest at final concentrations spanning 0.002 μM to 30 μM at 30° C. for 10 min. Typically, a 12 point titration was conducted by preparing serial dilutions (from 10 mM compound stocks) with DMSO of the test compounds in daughter plates. The reaction was initiated by the addition of 20 μl of ATP (final concentration 20 μM). Rates of reaction were obtained using a Molecular Devices Spectramax plate reader (Sunnyvale, Calif.) over 10 min at 30° C. The Ki values were determined from the rate data as a function of inhibitor concentration.

T1 sequence (P49841 whole entry, the tested form may be a part): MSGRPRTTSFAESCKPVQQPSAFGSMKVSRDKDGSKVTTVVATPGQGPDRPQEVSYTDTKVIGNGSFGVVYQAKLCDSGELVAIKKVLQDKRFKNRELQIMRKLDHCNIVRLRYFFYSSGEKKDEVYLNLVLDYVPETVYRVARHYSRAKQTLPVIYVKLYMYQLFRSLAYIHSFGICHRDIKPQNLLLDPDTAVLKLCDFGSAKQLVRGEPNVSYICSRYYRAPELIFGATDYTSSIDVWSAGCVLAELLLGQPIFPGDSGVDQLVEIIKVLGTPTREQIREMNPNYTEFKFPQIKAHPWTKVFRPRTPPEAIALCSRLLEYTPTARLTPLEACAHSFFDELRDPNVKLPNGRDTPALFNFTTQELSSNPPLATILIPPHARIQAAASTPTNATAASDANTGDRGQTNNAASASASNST

Row | Compound | Ki [nM]
1 | Fc1cc(F)c2[nH]nc(Nc3nc(-c4ccccc4Cl)nc4c3CCC4)c2c1 [II-118, [2-(2-Chloro-phenyl)-6,7-dihydro-5H-cyclopentapyrimidin-4-yl]-(5,7-difluoro-1R-indazol-3-yl)-amine] | < 100
2 | c1ccc2c(Nc3[nH]nc4ccccc34)nc(N3CCCCC3)nc2c1 [III-143, (1H-Indazol-3-yl)-(2-piperidin-1-yl-quinazolin-4-yl)-amine] | 1000 to 20000
3 | FC(F)(F)c1ccccc1-c1nc2c(c(Nc3n[nH]c4ccccc34)n1)CCCCCC2 [II-119, (1H-Indazol-3-yl)-[2-(2-trifluoromethyl-phenyl)-5,6,7,8,9,10-hexahydro-cyclooctapyrimidin-4-yl]-amine] | < 100
4 | FC(F)(F)c1ccccc1-c1nc(Nc2n[nH]cc2-c2cccs2)c2ccccc2n1 [II-47, [4-(Thiophen-2-yl)-2H-pyrazol-3-yl]-[2-(2-trifluoromethylphenyl)-quinazolin-4-yl]-amine] | 1000 to 20000
5 | Cc1cc(Nc2nc(-c3ccc4c(c3)OCO4)nc3ccccc23)[nH]n1 [III-43, (2-Benzo[1,3]dioxol-5-yl-quinazolin-4-yl)-(5-methyl-2H-pyrazol-3-yl)-amine] | 100 to 1000
6 | COC(=O)c1ccc2[nH]nc(Nc3nc(-c4ccccc4C(F)(F)F)nc4ccccc34)c2c1 [II-125, 3-[2-(2-Trifluoromethyl-phenyl)-quinazolin-4-ylamino]-1H-indazole-5-carboxylic acid methyl ester] | < 100
7 | Fc1ccc2[nH]nc(Nc3nc(-c4ccccc4Cl)nc4c3CCC4)c2c1 [II-112, [2-(2-Chloro-phenyl)-6,7-dihydro-5H-cyclopentapyrimidin-4-yl]-(5-fluoro-1H-indazol-3-yl)-amine] | < 100
8 | COc1cccc(-n2nc3c(Nc4nc(-c5ccccc5)nc5ccccc45)n[nH]c3cc2=O)c1 [III-134, [5-(3-Methoxy-phenyl)-6-oxo-5,6-dihydro-1H-pyrazolo[4,3-c]pyridazin-3-yl]-(2-phenyl-quinazolin-4-yl)-amine] | 100 to 1000
9 | Cc1nc(-c2ccccc2C(F)(F)F)nc(Nc2n[nH]c3c(F)cccc23)c1C [II-27, [5,6-Dimethyl-2-(2-trifluoromethyl-phenyl)-pyrimidin-4-yl]-(7-fluoro-1H-indazol-3-yl)-amine] | < 100
10 | O=c1cc2[nH]nc(Nc3nc(-c4ccccc4)nc4ccccc34)c2nn1-c1cccc(C(F)(F)F)c1 [III-138, [6-Oxo-5-(3-trifluoromethyl-phenyl)-5,6-dihydro-1H-pyrazolo[4,3-c]pyridazin-3-yl]-(2-phenyl-quinazolin-4-yl)-amine] | 100 to 1000
11 | Fc1ccc2[nH]nc(Nc3nc(-c4ccccc4C(F)(F)F)nc4c3CCCCCC4)c2c1 [II-111, (5-Fluoro-1H-indazol-3-yl)-[2-(2-trifluoromethyl-phenyl)-5,6,7,8,9,10-hexahydro-cyclooctapyrimidin-4-yl]-amine] | < 100
12 | Fc1cc(F)c2[nH]nc(Nc3nc(-c4ccccc4C(F)(F)F)nc4c3CCC4)c2c1 [II-115, (5,7-Difluoro-1H-indazol-3-yl)-[2-(2-trifluoromethyl-phenyl)-6,7-dihydro-5H-cyclopentapyrimidin-4-yl]-amine] | < 100
13 | CN1CCN(C(=O)c2cc(Nc3nc(-c4ccccc4)nc4ccccc34)[nH]n2)CC1 [III-98, [5-(1-Methylpiperazine-4-carbonyl)-2H-pyrazol-3-yl]-(2-phenyl-quinazolin-4-yl)-amine] | 1000 to 20000
14 | FC(F)(F)c1ccccc1-c1nc(Nc2n[nH]c3ccccc23)cc(-c2ccccn2)n1 [II-22, (1H-Indazol-3-yl)-[6-(pyridin-2-yl)-2-(2-trifluoromethyl-phenyl)-pyrimidin-4-yl]-amine] | 100 to 1000
15 | Cc1nc(-c2ccccc2C(F)(F)F)nc(Nc2n[nH]c3c(F)cc(F)cc23)c1C [II-28, (5,7-Difluoro-1H-indazol-3-yl)-[5,6-Dimethyl-2-(2-trifluoromethyl-phenyl)-pyrimidin-4-yl]-amine] | < 100
16 | Cc1nc(-c2ccccc2Cl)nc(Nc2n[nH]c3ccc(F)cc23)c1C [II-31, [2-(2-Chlorophenyl)-5,6-dimethyl-pyrimidin-4-yl]-(5-fluoro-1H-indazol-3-yl)-amine] | < 100
17 | Fc1ccc2[nH]nc(Nc3nc(-c4ccccc4C(F)(F)F)nc4c3CNCC4)c2c1 [II-16, (5-Fluoro-1H-indazol-3-yl)-[2-(2-trifluoromethyl-phenyl)-5,6,7,8-tetrahydro-pyrido[4,3-d]pyrimidin-4-yl]-amine] | < 100
18 | FC(F)(F)c1ccc2[nH]nc(Nc3nc(-c4ccccc4)nc4c3CCCC4)c2c1 [III-128, (2-Phenyl-5,6,7,8-tetrahydroquinazolin-4-yl)-(5-trifluoromethyl-1H-indazol-3-yl)-amine] | < 100

Row | Compound | Ki [nM]
19 | Fc1ccc2c(Nc3nc(-c4ccccc4C(F)(F)F)nc4ccccc34)n[nH]c2c1 [II-124, (6-Fluoro-1H-indazol-3-yl)-[2-(2-trifluoromethyl-phenyl)-quinazolin-4-yl]-amine] | < 100
20 | Fc1cccc2c(Nc3nc(-c4ccccc4C(F)(F)F)nc4c3CCC4)n[nH]c12 [II-114, (7-Fluoro-1H-indazol-3-yl)-[2-(2-trifluoromethyl-phenyl)-6,7-dihydro-5H-cyclopentapyrimidin-4-yl]-amine] | < 100
21 | Fc1ccc(-c2nc(Nc3n[nH]c4c(F)cc(F)cc34)c3ccccc3n2)c(C(F)(F)F)c1 [II-84, (5,7-Difluoro-1H-indazol-3-yl)-[2-(4-fluoro-2-trifluoromethyl-phenyl)-quinazolin-4-yl]-amine] | < 100
22 | Fc1cc(F)c2[nH]nc(Nc3nc(-c4ccccc4C(F)(F)F)nc4c3CCCCC4)c2c1 [II-11, (5,7-difluoro-1H-indazol-3-yl)-[2-(2-trifluoromethyl-phenyl)-6,7,8,9-tetrahydro-5H-cycloheptapyrimidin-4-yl]-amine] | < 100
23 | Fc1c(C(F)(F)F)ccc2c(Nc3nc(-c4ccccc4C(F)(F)F)nc4ccccc34)n[nH]c12 [II-81, (7-Fluoro-6-trifluoromethyl-1H-indazol-3-yl)-[2-(2-trifluoromethyl-phenyl)-quinazolin-4-yl]-amine] | < 100
24 | Fc1cc(F)c2[nH]nc(Nc3nc(-c4ccccc4C(F)(F)F)cc4ccccc34)c2c1 [Compound V-3, (5,7-Difluoro-1H-indazol-3-yl)-[3-(2-trifluoromethyl-phenyl)-isoquinolin-1-yl]-amine] | < 100
25 | CCOc1ccccc1-c1nc(Nc2cc(C)[nH]n2)c2ccccc2n1 [II-45, [2-(2-Ethoxyphenyl)-quinazolin-4-yl]-(5-Methyl-2H-pyrazol-3-yl)-amine] | 100 to 1000
26 | CNC(=O)c1cc(Nc2nc(-c3ccccc3)nc3ccccc23)[nH]n1 [III-96, (5-Methylcarbamoyl-2H-pyrazol-3-yl)-(2-phenyl-quinazolin-4-yl)-amine] | 1000 to 20000
27 | COc1cccc2c(Nc3n[nH]c4c(F)cccc34)nc(-c3ccccc3C(F)(F)F)nc12 [II-92, (7-Fluoro-1H-indazol-3-yl)-[8-methoxy-2-(2-trifluoromethyl-phenyl)-quinazolin-4-yl]-amine] | < 100
28 | FC(F)(F)c1ccccc1-c1nc(Nc2cc(-c3ccccc3)[nH]n2)c2ccccc2n1 [II-50, (5-Phenyl-2H-pyrazol-3-yl)-[2-(2-trifluoromethylphenyl)-quinazolin-4-yl]-amine] | 100 to 1000
29 | CC1CCCCN1c1nc(Nc2n[nH]c3ccccc23)c2ccccc2n1 (stereo not drawn) [III-146] | 1000 to 20000
30 | FC(F)(F)c1ccccc1-c1nc(Nc2n[nH]c3cccc(C(F)(F)F)c23)c2ccccc2n1 [II-65, (4-Trifluoromethyl-1H-indazol-3-yl)-[2-(2-trifluoromethyl-phenyl)-guinazolin-4-yl]-amine] | 1000 to 20000
31 | O=c1cc2[nH]nc(Nc3nc(-c4ccccc4)nc4ccccc34)c2nn1-c1ccc(Cl)cc1 [III-140, [5-(4-Chloro-phenyl)-6-oxo-5,6-dihydro-1H-pyrazolo[4,3-c]pyridazin-3-yl]-(2-phenyl-quinazolin-4-yl)-amine] | 100 to 1000
32 | CSc1n[nH]c(Nc2nc(-c3ccccc3C(F)(F)F)nc3ccccc23)n1 [IX-156, (5-Methylsulfanyl-2H-[1,2,4]triazol-3-yl)-[2-(2-trifluoromethylphenyl)-quinazolin-4-yl]-amine] | 1000 to 20000
33 | O=C(NCCO)c1cc(Nc2nc(-c3ccccc3)nc3ccccc23)[nH]n1 [III-99] | 1000 to 20000
34 | COc1ccc(-n2nc3c(Nc4nc(-c5ccccc5)nc5ccccc45)n[nH]c3cc2=O)cc1 [III-136, [5-(4-Methoxy-phenyl)-6-oxo-5,6-dihydro-1H-pyrazolo[4,3-c]pyridazin-3-yl]-(2-phenyl-quinazolin-4-yl)-amine] | 100 to 1000
35 | Fc1cc(F)c2[nH]nc(Nc3nc(-c4ccccc4Br)nc4ccccc34)c2c1 [II-85, [2-(2-Bromo-phenyl)-quinazolin-4-yl]-(5,7-difluoro-1H-indazol-3-yl)-amine] | < 100
36 | Cc1nc(-c2ccccc2Cl)nc(Nc2n[nH]c3ccccc23)c1C [II-26, [2-(2-Chlorophenyl)-5,6-dimethyl-pyrimidin-4-yl]-(1H-indazol-3-yl)-amine] | < 100
